{"source": "patent US8883856B2", "about": "“Compositions and methods for the treatment of inflammatory diseases using topoisomerase inhibitors” (priority 2000, dated 2014)", "key": {"[1]": {"tested_on": "synoviocytes (HIG.82 rabbit)", "experiment": "MTT proliferation/cytotoxicity assay, synoviocytes", "type": "cell-based", "conditions": "Oryctolagus cuniculus, read-out: inhibitory concentration that gave 50% effect on proliferation (IC50), synoviocytes", "experimental": "(§1) Proliferation was determined using the MTT proliferation/cytotoxicity assay.\n(§2) On day one, 1500-2000 smooth muscle cells (A7r5 rat embryonic thoracic aorta) or synoviocytes (HIG.82 rabbit) were plated per well on a 96-well plate, leaving the first column free of cells (blank). The plate was placed back into the 37° C., CO2 incubator. The following day camptothecin was added at various concentrations. No drugs were added to the first column (blank) and the second column (untreated column) for control. The cells were exposed for 24, 48, and 72 hours. At the end of the exposure period, 50 μl of dimethylthiazol diphenyltetrazolium bromide salt (MTT) dissolved in media was added and allowed to incubate for 4 hours at 37° C. The medium was then aspirated and 200 μl of dimethyl sulfoxide was added. The plate was agitated for 30 minutes and the absorbance read at 562 nm. The optical density measurement was converted to number of cells using a standard plot of optical density with known number of cells and cell viability was expressed as % growth (this value is the % of the control cells)."}, "[2]": {"tested_on": "smooth muscle cells (A7r5 rat embryonic thoracic aorta)", "experiment": "MTT proliferation/cytotoxicity assay, smooth muscle cells", "type": "cell-based", "conditions": "read-out: inhibitory concentration that gave 50% effect on proliferation (IC50), smooth muscle cells", "experimental": "as §1, §2"}, "human neutrophils": {"tested_on": "human neutrophils", "experiment": "Neutrophil chemiluminescence (neutrophil activation)", "type": "cell-based", "conditions": "for IC50 / inhibition at 10 µM: Homo sapiens, Neutrophil; for IC50: read-out: IC 50, inhibition of neutrophil chemiluminescence", "experimental": "Freshly prepared human neutrophils were incubated with the compound followed by stimulation of the cells with either plasma opsonized CPPD crystals, the bacterial chemoattractant, fMLP or the phorbol ester, PMA. Stimulation (or activation) of the cells induced superoxide anion generation which could be measured by the emission of light (chemiluminescence). Inhibition of neutrophil function was then determined by inhibition of chemiluminescence. Hanks buffered salt solution (HBSS) pH 7.4 was used throughout the study. All chemicals were purchased from Sigma Chemical Co. (St. Louis, Mo.) unless otherwise stated. All procedures were performed at 37° C. unless otherwise stated. CPPD (triclinic) crystals were prepared and characterized as previously reported (Jackson J K et al., J Rheumatol, 24: 341-348, 1996). The size distribution of the crystals was approximately 33% less than […]. Opsonization of crystals was carried out using 50% heparinized plasma and concentrations of 50 mg of CPPD in 1 mL of 50% plasma. Crystals were incubated with diluted plasma for 30 min at 37° C., centrifuged at 1000×g, then washed in HBSS and recentrifuged. Neutrophils were prepared from freshly collected, human, citrated whole blood. Briefly, 400 mL of blood were mixed with 80 mL of 4% dextran T500 (Pharmacia LKB, Biotechnology AB Uppsala, Sweden) in HBSS and allowed to settle for 1 h. Plasma was collected continuously and 5 mL applied to 5 mL Ficoll Paque (Pharmacia) in 15 mL polypropylene tubes (Corning, N.Y.). Following centrifugation at 500×g for 30 min, the neutrophil pellets were washed free of erythrocytes by 20 s of hypotonic shock. Neutrophils were resuspended in HBSS, kept on ice and used for experiments within 3 h. Neutrophil viability and purity was always greater than 90%.\nA stock solution of drug was diluted in DMSO to give various concentrations of drug. Equal volumes of these solutions were added to neutrophils at 5×10^6 cells per mL under mild vortexing to achieve final concentrations with a final DMSO concentration of 0.25%. This DMSO concentration found to have no effect on control cell responses. Cells were incubated for 15 minutes at 37° C. before addition to crystals, fMLP or PMA.\nChemiluminescence studies were performed at a cell concentration of 5×10^6 cells per mL in HBSS with CPPD (50 mg/mL). In all experiments 0.5 mL of cells were added to 25 mg of CPPD or 1 uM fMLP (and 0.5 uM cytochalasin B) or 0.5 uM PMA in 1.5 ml Eppendorf tubes. To the tubes were added 10 uL of luminol dissolved in 25% DMSO in HBSS to give a final concentration of 1 μM and the samples were mixed to initiate neutrophil activation. Chemiluminescence was monitored using an LKB Luminometer (Model 1250) at 37° C. with shaking immediately prior to measurements to resuspend the crystals. Control tubes contained cells, drug and luminol (crystals absent)."}, "collagenase gene": {"tested_on": "collagenase gene", "experiment": "IL-1 induced collagenase gene expression in chondrocytes", "type": "cell-based, calf", "source_text": "This assay measures the levels of RNA for the two metalloproteinases, collagenase and stromelysin. Over-expression of these genes results in excessive synthesis and secretion of these two enzymes from articular chondrocytes and may represent part of the pathophysiology of rheumatoid arthritis. Agents that inhibit over-expression of collagenase and stromelysin can be antiarthritc agents. […] Proteoglycan gene expression is part of the normal physiology of chondrocytes.\nPrimary chondrocyte culture was freshly isolated from calf cartilage. The cells were plated (at 2.5×10^6/mL) in 100×20 mm culture dishes and incubated in Ham's F12 medium containing 5% fetal bovine serum (FBS) overnight at 37° C. The cells were starved with serum-free medium overnight. […] Then IL-1 (20 ng/mL) was added to each plate and the plates were incubated for an additional 18 hours. Total RNA was isolated by the acidified guanidine isothiocyanate method and subjected to electrophoresis on a denatured gel. Denatured RNA samples (15 ug) were analyzed by gel electrophoresis in a 1% denaturing gel, transferred to a nylon membrane, and hybridized respectively with the ^32P-labelled collagenase cDNA probe, ^32P-labelled stromelycin cDNA probe, ^32P-labelled proteoglycan cDNA probe and ^32P-labelled glyceraldehyde phosphate dehydrogenase (PAGDH) cDNA. The PAGDH levels acted as an internal standard to ensure roughly equal loading. The experimental results on X-ray films were scanned and analyzed with HP ScanJet."}, "[3]": {"experiment": "In vitro drug release from polymeric formulations", "type": "physicochemical"}, "[4]": {"conditions": "three agonists: CPPD crystals, fMLP, PMA"}, "[5]": {"conditions": "ethylene vinyl acetate films, PBS pH 7.4, 37° C."}, "[6]": {"conditions": "polycaprolactone paste, PBS, 37° C."}, "[7]": {"conditions": "polycaprolactone microspheres, PBS pH 7.4, 37° C."}, "[8]": {"conditions": "chitosan films, PBS pH 7.4, 37° C."}, "[9]": {"conditions": "poly(L-lactic acid) microspheres, PBS pH 7.4, 37° C."}, "[10]": {"conditions": "triblock copolymer/MePEG paste, PBS pH 7.4 with n-octanol, 37° C."}}, "note": "Read-outs that look alike come from different tables or passages of the source."}
{"smiles": "CC1(C)CCC2=C(O1)c1ccccc1C(=O)C2=O", "note": "[beta-lapachone]", "values": [{"measurement": "IC50", "setting": "[1]; 48 hours exposure", "result": 5.6, "unit": "µM"}, {"measurement": "IC50", "setting": "[2]; A7R5, 48 hours exposure", "result": 6.3, "unit": "µM"}, {"measurement": "IC50", "setting": "human neutrophils; [4]", "result": "1 to 10", "unit": "µM"}, {"measurement": "IL-1 induced collagenase gene expression", "setting": "collagenase gene; 1×10^−5 M", "result": "almost completely inhibited"}, {"measurement": "drug release profile", "setting": "[3]; [5]", "result": "initial burst of drug release followed by a slow sustained release"}, {"measurement": "drug release profile", "setting": "[3]; [6]", "result": "initial burst of drug release followed by a slow sustained release"}]}
{"smiles": "COc1cccc2c1C(=O)c1c(O)c3c(c(O)c1C2=O)C[C@@](O)(C(=O)CO)C[C@@H]3O[C@H]1C[C@H](N)[C@H](O)[C@H](C)O1", "note": "[doxorubicin]", "values": [{"measurement": "IC50", "setting": "[1]; 48 hours exposure", "result": 0.1, "unit": "µM"}, {"measurement": "IC50", "setting": "[2]; A7R5, 48 hours exposure", "result": 0.6, "unit": "µM"}, {"measurement": "inhibition at 10 µM", "setting": "human neutrophils", "result": 13, "unit": "%"}, {"measurement": "IL-1 induced collagenase gene expression", "setting": "collagenase gene; 1×10^−5 M", "result": "completely inhibited"}, {"measurement": "drug release profile", "setting": "[3]; [5]", "result": "initial burst of drug release followed by a slow sustained release"}, {"measurement": "drug release profile", "setting": "[3]; [6]", "result": "initial burst of drug release followed by a slow sustained release"}]}
{"smiles": "COc1cc([C@@H]2c3cc4c(cc3[C@@H](O[C@@H]3O[C@@H]5CO[C@@H](C)O[C@H]5[C@H](O)[C@H]3O)[C@H]3COC(=O)[C@H]23)OCO4)cc(OC)c1O", "note": "[etoposide]", "values": [{"measurement": "IC50", "setting": "[1]; 48 hours exposure", "result": "~15", "unit": "µM"}, {"measurement": "IC50", "setting": "[2]; A7R5, 48 hours exposure", "result": "~15", "unit": "µM"}, {"measurement": "inhibition at 10 µM", "setting": "human neutrophils", "result": 25, "unit": "%"}, {"measurement": "IL-1 induced collagenase gene expression", "setting": "collagenase gene; 1×10^−5 M", "result": "inhibited"}, {"measurement": "drug release profile", "setting": "[3]; [5]", "result": "initial burst of drug release followed by a slow sustained release"}, {"measurement": "drug release profile", "setting": "[3]; [6]", "result": "initial burst of drug release followed by a slow sustained release"}]}
{"smiles": "CC1=CC(=O)c2ccccc2C1=O", "note": "[menadione]", "values": [{"measurement": "IC50", "setting": "[1]; 48 hours exposure", "result": 15, "unit": "µM"}, {"measurement": "IC50", "setting": "[2]; A7R5, 48 hours exposure", "result": 8.2, "unit": "µM"}, {"measurement": "IC50", "setting": "human neutrophils; activation by MSUM crystals", "result": "0.5 to 1", "unit": "µg/mL"}, {"measurement": "IL-1 induced collagenase gene expression", "setting": "collagenase gene; 1×10^−5 M", "result": "inhibited"}, {"measurement": "drug release profile", "setting": "[3]; [7]", "result": "initial burst of drug release followed by a slow sustained release"}, {"measurement": "drug release profile", "setting": "[3]; [6]", "result": "initial burst of drug release followed by a slow sustained release"}]}
{"smiles": "CC1=CC(=O)c2c(O)cccc2C1=O", "note": "[plumbagin]", "values": [{"measurement": "IC50", "setting": "[1]; 48 hours exposure", "result": 3.6, "unit": "µM"}, {"measurement": "IC50", "setting": "[2]; A7R5, 48 hours exposure", "result": 2.6, "unit": "µM"}, {"measurement": "IC50", "setting": "human neutrophils; [4]", "result": "< 1", "unit": "µg/mL"}, {"measurement": "IL-1 induced collagenase gene expression", "setting": "collagenase gene; 1×10^−5 M", "result": "completely inhibited"}, {"measurement": "drug release profile", "setting": "[3]; [8]", "result": "initial burst of drug release followed by a slow sustained release"}, {"measurement": "drug release profile", "setting": "[3]; [5]", "result": "initial burst of drug release followed by a slow sustained release"}, {"measurement": "drug release profile", "setting": "[3]; [9]", "result": "initial burst of drug release followed by a slow sustained release"}, {"measurement": "drug release profile", "setting": "[3]; [7]", "result": "initial burst of drug release followed by a slow sustained release"}, {"measurement": "drug release profile", "setting": "[3]; [6]", "result": "initial burst of drug release followed by a slow sustained release"}, {"measurement": "drug release profile", "setting": "[3]; [10]", "result": "initial burst of drug release followed by a slow sustained release"}]}
{"smiles": "CC[C@@]1(O)C(=O)OCc2c1cc1n(c2=O)Cc2cc3ccccc3nc2-1", "note": "[camptothecin]", "values": [{"measurement": "IC50", "setting": "[1]; 48 h", "result": 0.065, "unit": "µM"}, {"measurement": "IC50", "setting": "[2]; A7R5, 48 h", "result": 1.6, "unit": "µM"}, {"measurement": "inhibition of neutrophil chemiluminescence", "setting": "human neutrophils; concentration printed as (5%)", "result": 2, "unit": "%"}, {"measurement": "IL-1 induced collagenase gene expression", "setting": "collagenase gene; 1×10^−7 M", "result": "almost completely inhibited"}, {"measurement": "effect of addition of MePEG to the PCL on release rate", "setting": "[3]; 10% and 20% camptothecin loaded PCL paste, 20% MePEG", "result": "accelerated the release rate"}, {"measurement": "drug release profile", "setting": "[3]; [8]", "result": "initial burst of drug release followed by a slow sustained release"}, {"measurement": "drug release profile", "setting": "[3]; [5]", "result": "initial burst of drug release followed by a slow sustained release"}, {"measurement": "drug release profile", "setting": "[3]; [9]", "result": "initial burst of drug release followed by a slow sustained release"}, {"measurement": "drug release profile", "setting": "[3]; [6]", "result": "initial burst of drug release followed by a slow sustained release"}, {"measurement": "drug release profile", "setting": "[3]; [10]", "result": "initial burst of drug release followed by a slow sustained release"}]}
